Results taken from BindingDB's records for patent US20260049068 (Bristol Myers Squibb, 2026).

Legend:
[1] = molecular target: T1, Diacylglycerol kinase alpha [9-727] (Homo sapiens, UniProt P23743); test: In Vitro DGK Inhibition Assay
T1 construct: 9-727
Description: (§1) The DGKα (Full Length and Near Full Length) ADP Glo assays were performed using an extruded liposome prep at either 5% DAG or 10% DAG. The Enzymatic reactions were carried out in 50 mM MOPS pH 7.5, 100 mM NaCl, 10 mM MgCl2, 1 μM CaCl2, and 1 mM DTT (assay buffer). The lipid substrate concentrations were 1.9 mM PS, either 0.25 mM DAG (5% liposome prep) or 0.5 mM DAG (10% liposome prep), and 2.7 mM PC for the extruded liposome reactions. […] A 5 mL enzyme/substrate (substrate being the 5× or 10× liposome preparation) solution at 2× final reaction concentrations was prepared by combining 5 ml of the extruded liposome preparation with 10 nM (2× final) DGKα(Near Full Length) or DGKα(Full Length) prepared as described below) and incubated at room temperature for 10 minutes. Next, 1 μL of the 2× enzyme/substrate solution was added to wells containing the test compound and reactions were initiated with the addition of 1 μL 300 uM ATP. Substrate only was added to DMSO only wells for background measurements. The reactions were allowed to proceed for 1 hr, after which 2 μL Glo Reagent (Promega V9101) was added and incubated for 40 minutes. Next, 4 μL Kinase Detection Reagent was added and incubated for 30 minutes. Luminescence was recorded using an EnVision microplate reader. […] The compounds were evaluated at 11 concentrations to determine IC50.

[2] = molecular target: Diacylglycerol kinase alpha (Homo sapiens, UniProt P23743); test: In Vitro DGK Inhibition Assay
Chain of Diacylglycerol kinase alpha (P23743 whole entry): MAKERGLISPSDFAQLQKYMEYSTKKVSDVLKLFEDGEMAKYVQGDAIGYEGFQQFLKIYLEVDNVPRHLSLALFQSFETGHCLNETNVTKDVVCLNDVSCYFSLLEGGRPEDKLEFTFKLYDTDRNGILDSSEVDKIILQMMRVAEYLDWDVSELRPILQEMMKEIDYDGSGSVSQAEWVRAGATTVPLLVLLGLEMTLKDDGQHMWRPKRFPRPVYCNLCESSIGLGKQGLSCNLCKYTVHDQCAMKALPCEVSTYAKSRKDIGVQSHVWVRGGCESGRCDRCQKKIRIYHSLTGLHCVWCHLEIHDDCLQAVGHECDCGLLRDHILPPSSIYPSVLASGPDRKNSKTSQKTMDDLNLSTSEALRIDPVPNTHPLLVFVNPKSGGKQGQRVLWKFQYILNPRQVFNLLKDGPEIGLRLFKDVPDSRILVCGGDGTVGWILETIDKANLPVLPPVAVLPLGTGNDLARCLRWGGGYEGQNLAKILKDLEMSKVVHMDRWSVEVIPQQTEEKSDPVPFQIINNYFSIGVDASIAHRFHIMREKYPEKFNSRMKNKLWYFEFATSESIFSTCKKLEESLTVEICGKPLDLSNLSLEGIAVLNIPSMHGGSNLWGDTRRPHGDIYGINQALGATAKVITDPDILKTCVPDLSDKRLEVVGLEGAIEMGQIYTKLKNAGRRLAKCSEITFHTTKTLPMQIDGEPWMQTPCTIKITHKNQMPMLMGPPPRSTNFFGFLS
Description: as §1

T1 sequence (P23743 whole entry): as above

SMILES | IC50 [1] [µM] | IC50 [2] [µM]
CC1CCC(N(C)Cc2nnnn2-c2cccc([N+](=O)[O-])c2)CC1 (centres undefined) [US20260049068, Example 2] | 1.2 | 2.7
C=CCN(Cc1nnnn1-c1ccc(Cl)c(C#N)n1)C1CCCCC1 [US20260049068, Example 17] | 1.6 | 1.2
CN(Cc1nnnn1-c1cc(C#N)cc([N+](=O)[O-])c1)C1CCCCC1 [US20260049068, Example 27] | 0.48 | 
CN(Cc1nnnn1-c1ccc(Cl)c([N+](=O)[O-])c1)C1CCCCC1 [US20260049068, Example 28] | 0.12 | 0.06
CN(Cc1nnnn1-c1cccc([N+](=O)[O-])c1)C1CCOCC1 [US20260049068, Example 38] |  | 15
CN(Cc1nnnn1-c1cccc([N+](=O)[O-])c1)C1CCN(C(=O)OC(C)(C)C)C1 (centres undefined) [US20260049068, Example 39] |  | 35
CN(Cc1nnnn1-c1cccc([N+](=O)[O-])c1)C1CCOC1 (centres undefined) [US20260049068, Example 40] |  | 55
CC(C)CN(C)Cc1nnnn1-c1cccc([N+](=O)[O-])c1 [US20260049068, Example 42] |  | 32
CN(Cc1nnnn1-c1cccc([N+](=O)[O-])c1)C1CC1 [US20260049068, Example 44] |  | 180
N#Cc1nc(-n2nnnc2CN(CC(O)c2ccccc2)C2CCCCC2)ccc1Cl (centres undefined) [US20260049068, Example 57] |  | 120
N#Cc1nc(-n2nnnc2CN(Cc2ccccc2)[C@@H]2CCCC[C@H]2O)ccc1Cl [US20260049068, Example 58] |  | 60
